# Legend:
# [1] = test system: Green Peach Aphid (Myzus persicae); experiment: Bioassay for Green Peach Aphid (GPA) (MYZUPE), foliar spray on cabbage seedlings; assay type: in vivo; details: 72 h, 200 ppm foliar spray, graded after three days, Abbott corrected % control, read-out: % Control (or Mortality) rating, GPA
# Protocol: Cabbage seedlings grown in 3-inch pots, with 2-3 small (3-5 cm) true leaves, were used as test substrate. The seedlings were infested with 20-50 GPA (wingless adult and nymph stages) one day prior to chemical application. Four pots with individual seedlings were used for each treatment. Test compounds (2 mg) were dissolved in 2 mL of acetone/methanol (1:1) solvent, forming stock solutions of 1000 ppm test compound. The stock solutions were diluted 5× with 0.025% Tween 20 in H2O to obtain the solution at 200 ppm test compound. A hand-held aspirator-type sprayer was used for spraying a solution to both sides of […] leaves until runoff. Reference plants (solvent check) were sprayed with the diluent only containing 20% by volume of acetone/methanol (1:1) solvent. Treated plants were held in a holding room for three days at approximately 25° C. and ambient relative humidity (RH) prior to grading. Evaluation was conducted by counting the number of live aphids per plant under a microscope. Percent control was measured by using Abbott's correction formula (W. S. Abbott, “A Method of Computing the Effectiveness of an Insecticide,” J. Econ. Entomol. 18 (1925), pp. 265-267) as follows. Corrected % Control=100*(X−Y)/X
# X=No. of live aphids on solvent check plants and
# Y=No. of live aphids on treated plants
# (§1) Biological Data for Green Peach Aphid (GPA) (MYZUPE) and Sweetpotato Whitefly-crawler (WF) (BEMITA)” (See Table Section).
# [2] = test system: Sweetpotato Whitefly-Crawler (Bemisia tabaci); experiment: Insecticidal test for Sweetpotato Whitefly-Crawler (WF) (BEMITA) in foliar spray assay on cotton plants; assay type: in vivo; details: 216 h, 200 ppm foliar spray, graded after 9 days, Abbott corrected % control, read-out: % Control (or Mortality) rating, WF
# Protocol: Cotton plants (Gossypium hirsutum) grown in 3-inch pots, with 1 small (4-5 cm) true leaves, were used as test substrate. The plants were infested with 200-400 whitefly eggs 4-5 days prior to chemical application. Four pots with individual plants were used for each treatment. Test compounds (2 mg) were dissolved in 1 mL of acetone solvent, forming stock solutions of 2000 ppm test compound. The stock solutions were diluted 10× with 0.025% Tween 20 in H2O (diluents) to obtain the solution at 200 ppm test compound. A hand-held aspirator-type sprayer was used for spraying a solution to both sides of cotton leaves until runoff. Reference plants (solvent check) were sprayed with the diluent only containing 10% by volume of acetone solvent. Treated plants were held in a holding room for 9 days at approximately 25° C. and ambient relative humidity (RH) prior to grading. Evaluation was conducted by counting the number of live 3-4 nymph stage per plant under a microscope. Percent control was measured by using Abbott's correction formula (W. S. Abbott, “A Method of Computing the Effectiveness of an Insecticide,” J. Econ. Entomol. 18 (1925), pp. 265-267) as follows. Corrected % Control=100*(X−Y)/X
# X=No. of live nymphs on solvent check plants and
# Y=No. of live nymphs on treated plants.
# as §1
Compound,mortality at 200 ppm [1] [%],mortality at 200 ppm [2] [%]
"CCN(C(=O)CCSCC1CC1(F)F)c1cn(-c2ccc[n+]([O-])c2)nc1C (stereo not shown) [Compound P74, 3-(4-(3-(((2,2-Difluorocyclopropyl)methyl)thio)-N-ethylpropanamido)-3-methyl-1H-pyrazol-1-yl)pyridine 1-oxide]",80 to 100,80 to 100
"CCN(C(=O)CC[S+]([O-])CC1CC1(F)F)c1cn(-c2ccc[n+]([O-])c2)nc1C (stereo not shown) [Compound P75, 3-(4-(3-(((2,2-Difluorocyclopropyl)methyl)sulfinyl)-N-ethylpropan-amido)-3-methyl-1H-pyrazol-1-yl)pyridine 1-oxide]",80 to 100,80 to 100
"CCN(C(=O)CCSCCCC(F)(F)F)c1cn(-c2ccc[n+]([O-])c2)nc1C [Compound P80, 3-(4-(N-Ethyl-3-((4,4,4-trifluorobutyl)thio)propanamido)-3-methyl-1H-pyrazol-1-yl)pyridine 1-oxide]",80 to 100,80 to 100
"CCN(C(=O)CC[S+]([O-])CCCC(F)(F)F)c1cn(-c2ccc[n+]([O-])c2)nc1C (stereo not shown) [Compound P81, 3-(4-(N-Ethyl-3-((4,4,4-trilluorobutyl)sulfinyl)propanamido)-3-methyl-1H-pyrazol-1-yl)pyridine 1-oxide]",80 to 100,80 to 100
"CCN(C(=O)CCSCC1CC1(F)F)c1cn(-c2cc(F)c[n+]([O-])c2)nc1Cl (stereo not shown) [Compound P92, 3-(3-Chloro-4-(3-(((2,2-difluorocyclopropyl)methyl)thio)-N-ethylpropanamido)-1H-pyrazol-1-yl)-5-fluoropyridine 1-oxide]",80 to 100,80 to 100
"CCN(C(=O)CC[S+]([O-])CC1CC1(F)F)c1cn(-c2cc(F)c[n+]([O-])c2)nc1Cl (stereo not shown) [Compound P93, 3-(3-Chloro-4-(3-(((2,2-difluorocyclopropyl)methyl)sulfinyl)-N-ethylpropanamido)-1H-pyrazol-1-yl)-5-fluoropyridine 1-oxide]",80 to 100,80 to 100
"CCN(C(=O)CCSCCCC(F)(F)F)c1cn(-c2cc(F)c[n+]([O-])c2)nc1Cl [Compound P98, 3-(3-Chloro-4-(N-ethyl-3-((4,4,4-trilluorobutyl)thio)propanamido)-1H-pyrazol-1-yl)-5-fluoropyridine 1-oxide]",0 to 80,80 to 100
"CCN(C(=O)CC[S+]([O-])CCCC(F)(F)F)c1cn(-c2cc(F)c[n+]([O-])c2)nc1Cl (stereo not shown) [Compound P99, 3-(3-Chloro-4-(N-ethyl-3-((4,4,4-trilluorobutyl)sulfinyl)propanamido)-1H-pyrazol-1-yl)-5-fluoropyridine 1-oxide]",80 to 100,80 to 100
"CCN(C(=O)C(C)CSCCC(F)(F)F)c1cn(-c2ccc[n+]([O-])c2)nc1C (stereo not shown) [FA1, 3-(4-(N-Ethyl-2-methyl-3-((3,3,3-trilluoropropyl)thio)propanamido)-3-methyl-1H-pyrazol-1-yl)pyridine 1-oxide]",80 to 100,80 to 100
"CCN(C(=O)C(C)CSCCC(F)(F)F)c1cn(-c2cc(F)c[n+]([O-])c2)nc1Cl (stereo not shown) [FA2, 3-(3-Chloro-4-(N-ethyl-2-methyl-3-((3,3,3-trifluoropropyl)thio)propanamido)-1H-pyrazol-1-yl)-5-fluoropyridine 1-oxide]",80 to 100,80 to 100
"CCN(C(=O)C(C)CSCCC(F)(F)F)c1cn(-c2ccc[n+]([O-])c2)nc1Cl (stereo not shown) [FA3, 3-(3-Chloro-4-(N-ethyl-2-methyl-3-((3,3,3-trifluoropropyl)thio)propanamido)-1H-pyrazol-1-yl)pyridine 1-oxide]",80 to 100,80 to 100
"C#CCN(C(=O)C(C)CSCCC(F)(F)F)c1cn(-c2ccc[n+]([O-])c2)nc1Cl (stereo not shown) [FA4, 3-(3-Chloro-4-(2-methyl-N-(prop-2-yn-1-yl)-3-((3,3,3trifluoropropyl)thio)propanamido)-1H-pyrazol-1-yl)pyridine 1-oxide]",80 to 100,80 to 100
"CC(CSCCC(F)(F)F)C(=O)N(C)c1cn(-c2ccc[n+]([O-])c2)nc1Cl (stereo not shown) [FA5, 3-(3-Chloro-4-(N,2-dimethyl-3-((3,3,3-trifluoropropyl)thio)propanamido)-1H-pyrazol-1-yl)pyridine 1-oxide]",80 to 100,80 to 100
"CCN(C(=O)C(C)C[S+]([O-])CCC(F)(F)F)c1cn(-c2cc(F)c[n+]([O-])c2)nc1Cl (stereo not shown) [FA6, 3-(3-Chloro-4-(N-ethyl-2-methyl-3-((3,3,3-trifluoropropyl)sulfinyl)propanamido)-1H-pyrazol-1-yl)-5-fluoropyridine 1-oxide]",80 to 100,80 to 100
"C#CCN(C(=O)C(C)C[S+]([O-])CCC(F)(F)F)c1cn(-c2ccc[n+]([O-])c2)nc1Cl (stereo not shown) [FA7, 3-(3-Chloro-4-(2-methyl-N-(prop-2-yn-1-yl)-3-((3,3,3-trifluoropropyl)sulfinyl)propanamido)-1H-pyrazol-1-yl)pyridine 1-oxide]",80 to 100,80 to 100
"CC(C[S+]([O-])CCC(F)(F)F)C(=O)N(C)c1cn(-c2ccc[n+]([O-])c2)nc1Cl (stereo not shown) [FA8, 3-(3-Chloro-4-(N,2-dimethyl-3-((3,3,3-trifluoropropyl)sulfinyl)propanamido)-1H-pyrazol-1-yl)pyridine 1-oxide]",80 to 100,80 to 100
"CCN(C(=O)C(C)C[S+]([O-])CCC(F)(F)F)c1cn(-c2ccc[n+]([O-])c2)nc1Cl (stereo not shown) [FA9, 3-(3-Chloro-4-(N-ethyl-2-methyl-3-((3,3,3-trifluoropropyl)sulfinyl)propanamido)-1H-pyrazol-1-yl)pyridine 1-oxide]",80 to 100,80 to 100
"CCN(C(=O)C(C)C[S+]([O-])CCC(F)(F)F)c1cn(-c2ccc[n+]([O-])c2)nc1C (stereo not shown) [FA10, 3-(4-(N-Ethyl-2-methyl-3-((3,3,3-trifluoropropyl)sulfinyl)propanamido)-3-methyl-1H-pyrazol-1-yl)pyridine 1-oxide]",80 to 100,0 to 80
"CCN(C(=O)CS(C)(=O)=O)c1cn(-c2ccc[n+]([O-])c2)nc1Cl [FA11, 3-(3-chloro-4-(N-ethyl-2-(methylsulfonyl)acetamido)-1H-pyrazol-1-yl)pyridine 1-oxide]",80 to 100,0 to 80
"CC(C(=O)N(C)c1cn(-c2ccc[n+]([O-])c2)nc1Cl)S(C)(=O)=O (stereo not shown) [FA12, 3-(3-chloro-4-(N-methyl-2-(methylsulfonyl)propanamido)-1H-pyrazol-1-yl)pyridine 1-oxide]",80 to 100,80 to 100

# Reference: patent publication US9549560B2, “Pesticidal compositions and related methods” (DOW AGROSCIENCES LLC, priority 2013, dated 2017)
